Legend:
[1] = molecular target: T1, Recombinant human GLB1 (rhGLB1) (Homo sapiens, UniProt P16278); assay: Enzymatic hydrolysis by recombinant human GLB1 (fluorescence reaction velocity); type: biochemical; details: compound 500 uM; for Average percent of MU-Gal reaction velocity: pH 4.4, 37° C., relative to positive control MU-Gal; for rhGLB1 substrate: pH 4.4 McIlvaine Buffer, 37° C.
T1 sequence (P16278 29-677): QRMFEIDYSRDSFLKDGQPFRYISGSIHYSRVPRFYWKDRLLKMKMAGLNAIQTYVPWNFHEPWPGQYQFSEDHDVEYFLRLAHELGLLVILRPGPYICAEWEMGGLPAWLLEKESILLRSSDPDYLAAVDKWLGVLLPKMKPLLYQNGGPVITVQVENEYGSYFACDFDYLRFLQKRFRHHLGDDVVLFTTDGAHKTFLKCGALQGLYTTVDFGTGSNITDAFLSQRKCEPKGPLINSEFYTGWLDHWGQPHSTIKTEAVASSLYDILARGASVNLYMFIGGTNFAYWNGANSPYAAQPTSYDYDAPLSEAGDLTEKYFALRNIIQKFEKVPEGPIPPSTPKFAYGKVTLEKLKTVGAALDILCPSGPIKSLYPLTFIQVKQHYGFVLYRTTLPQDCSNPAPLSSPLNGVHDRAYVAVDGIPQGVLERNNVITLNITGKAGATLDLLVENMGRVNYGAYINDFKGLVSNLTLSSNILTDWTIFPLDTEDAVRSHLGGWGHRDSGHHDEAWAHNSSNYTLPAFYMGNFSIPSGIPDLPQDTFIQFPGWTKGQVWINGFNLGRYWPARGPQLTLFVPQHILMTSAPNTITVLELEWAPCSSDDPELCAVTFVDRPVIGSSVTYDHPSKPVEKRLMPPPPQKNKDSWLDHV
Experimental: (§1) Compounds were added to wells of a black-walled clear bottom 96 well plate at a concentration of […]. 4-methylumbelliferyl-alpha-L-fucopyranoside (referred to as MU-Fuc, CAS 54322-38-2) or 4-methylumbelliferyl-beta-D-galactopyranoside (referred to as MU-Gal, CAS 6160-78-7) were included as positive control compounds. Recombinant human FUCA1 (1-25 nM) or GLB1 (2-50 nM) in reaction buffer comprised of pH 4.4 McIlvaine Buffer, 2 mM dithiothreitol and 0.1% (v/v) Tween-20 was added to the wells. Enzyme-free controls were included to check for spontaneous compound hydrolysis. The plate was shaken and incubated at 37° C. in the plate reader. Every 5 minutes, fluorescence was read at the excitation wavelength of 330 nm and the emission wavelength of 450 nm for up to 3 hours. Linear regressions were calculated during the linear phase of the reaction to calculate the reaction velocity at each concentration of compound. Reaction velocities for compounds at 500 uM were compared as a percentage of the appropriate positive control compound.
Hydrolysis by the recombinant human GLB1 (rhGLB1) enzyme of modified galactose sugars conjugated to 4-methylumbelliferone was assessed by quantifying the generation of fluorescence over time as described in Example 10 and is compiled in Table 1, supra. Reaction rates of each compound were compared to the hydrolysis rate of the unmodified galactose conjugate MU-Gal. Of the modified galactose compounds tested, compound 42 was rapidly hydrolyzed, at a rate about 8% of that of MU-Gal. Compounds 33 and 6 were hydrolyzed with reaction velocities about 4% or 3% of that of MU-Gal, respectively. Compounds 35, 31, and 27 were hydrolyzed by rhGLB1, but slowly compared to MU-Gal with rates less than 2% of that of MU-Gal.

[2] = tested on: T47D breast cancer cells (sgNTC control); assay: Cellular hydrolysis of compounds in live T47D control cells (4-MU fluorescence); type: cell-based; details: compound 30 uM, naked sugar and acetylated version; for Average percent of product relative to 26 at 72 hours in T47D control cells: modified galactose conjugates
Experimental: (§2) T47D breast cancer cells were cultured in RPMI 1640 medium containing 10% heat inactivated fetal bovine serum. Cell lines were infected with lentiviral construct(s) containing S. pyogenes Cas9 and sgRNA(s) targeting the gene(s) of interest (sgNTC, non-targeting control; sgFUCA1_1, FUCA1 knockout). Infected cells were selected by antibiotic treatment. To assess the cellular hydrolysis of compounds, cells were seeded at 3-20,000 cells per well into 96-well plates and incubated at 37° C. with 5% CO2. The next day, compounds (30 uM) were added to the cells. Wells containing only compounds in media were included as background fluorescence controls. 4-methylumbelliferyl-alpha-L-fucopyranoside (referred to as MU-Fuc, CAS 54322-38-2) or 4-methylumbelliferyl-2,3,4,6-tetra-O-acetyl-beta-D-galactopyranoside (CAS 6160-79-8) were included as positive controls. A 4-methylumbelliferone (referred to as 4-MU, CAS 90-33-5) standard ladder ranging from 39 to 5000 pmoles was added to each cell line. Fluorescence was read at the excitation wavelength of 330 nm and the emission wavelength of 450 nm on the plate reader every 24 hours for 72 hours. The plate was returned to the 37° C. 5% CO2 incubator between readings. A linear regression was performed to determine the slope of the line relating fluorescence to pmoles of 4-MU standard at each time point. The average cell-free background fluorescence for each compound at each time point was subtracted from all compound sample fluorescence measurements. Compound sample fluorescence was converted to pmoles of 4-MU by dividing by the slope of the 4-MU linear regression. The amount of 4-MU present at 72 hours for each compound in each cell line was compared as a percentage of the appropriate positive control compound.
The hydrolysis of modified galactose sugars conjugated to 4-methylumbelliferone in live cells was assessed by incubating the compounds in media with T47D breast cancer cells for 3 days and quantifying the generation of fluorescence over time as described in Example 11 and is compiled in Table 3, supra. […]

[3] = molecular target: T2, Recombinant human FUCA1 (rhFUCA1) (Homo sapiens, UniProt P04066); assay: Enzymatic hydrolysis by recombinant human FUCA1 (fluorescence reaction velocity); type: biochemical; details: compound 500 uM; for Average reaction velocity relative to MU-Fuc (%): pH 4.4, 37° C., relative to positive control MU-Fuc; for rhFUCA1 substrate: pH 4.4 McIlvaine Buffer, 37° C.
T2 sequence (P04066 32-466): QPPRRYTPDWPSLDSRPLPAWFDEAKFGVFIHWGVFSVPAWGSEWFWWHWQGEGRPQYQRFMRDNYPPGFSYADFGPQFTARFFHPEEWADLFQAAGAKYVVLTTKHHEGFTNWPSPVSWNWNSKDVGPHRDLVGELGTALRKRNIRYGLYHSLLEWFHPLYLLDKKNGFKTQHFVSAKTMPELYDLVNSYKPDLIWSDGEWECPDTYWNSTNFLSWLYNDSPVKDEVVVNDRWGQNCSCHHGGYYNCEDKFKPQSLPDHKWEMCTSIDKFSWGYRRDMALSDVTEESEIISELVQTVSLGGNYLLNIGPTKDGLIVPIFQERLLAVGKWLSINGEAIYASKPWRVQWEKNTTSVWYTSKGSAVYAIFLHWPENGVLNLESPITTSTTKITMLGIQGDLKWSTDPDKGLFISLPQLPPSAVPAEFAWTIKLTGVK
Experimental: as §1
Hydrolysis by the recombinant human FUCA1 enzyme (rhFUCA1) of modified fucose sugars conjugated to 4-methylumbelliferone or 7-amino-4-methylcoumarin was assessed by quantifying the generation of fluorescence over time as described in Example 10 and is compiled in Table 1, supra. Reaction rates of each compound were compared to the hydrolysis of the unmodified fucose conjugate MU-Fuc (14). Compound 43 was hydrolyzed by rhFUCA1 at a velocity about 35% of that of MU-Fuc. The reaction rate of 19 with rhFUCA1 was about 30% of that of MU-Fuc.

[4] = tested on: T47D FUCA1 knockout cells; assay: Cellular hydrolysis in T47D FUCA1 knockout cells versus T47D control cells; type: cell-based; details: compound 30 uM
Experimental: as §2, with “4-methylumbelliferyl-alpha-L-fucopyranoside (referred to as MU-Fuc, CAS 54322-38-2) or 4-methylumbelliferyl-2,3,4,6-tetra-O-acetyl-beta-D-galactopyranoside (CAS 6160-79-8) were included as positive controls. A 4-methylumbelliferone (referred to as 4-MU, CAS 90-33-5) standard ladder ranging from 39 to 5000 pmoles was added to each cell line.” left out, “The plate was returned to the 37° C.” left out, “The amount of 4-MU present at 72 hours for each compound in each cell line was compared as a percentage of the appropriate positive control compound.” left out

Row | Compound | Average percent of MU-Gal reaction velocity [1] | rhGLB1 substrate [1] | rhFUCA1 substrate [3] | further results
1 | Cc1cc(=O)oc2cc(O[C@@H]3O[C@@H](C)[C@@H](O)[C@@H](O)[C@@H]3O)ccc12 [Compound 14, 4-methyl-7-(((2S,3S,4R,5S,6S)-3,4,5-trihydroxy-6-methyltetrahydro-2H-pyran-2-yl)oxy)-2H-chromen-2-one, reference compound] | 7.6% | yes | yes | Average percent of product relative to MU-Fuc (14) at 72 hours by T47D control cells ([2]; modified fucose conjugates): 100%; Average reaction velocity relative to MU-Fuc (%) [3]: 100%
2 | Cc1cc(=O)oc2cc(O[C@H]3C[C@H](O)[C@H](O)[C@H](C)O3)ccc12 [Compound 19, (2S,3R,4S,6S)-2-methyl-6-((4-methyl-2-oxo-2H-chromen-7-yl)oxy)tetrahydro-2H-pyran-3,4-diyl diol] |  |  | yes | 
3 | Cc1cc(=O)oc2cc(O[C@H]3C[C@@H](O)[C@@H](O)[C@@H](CO)O3)ccc12 [Compound 24] | 0% | not hydrolyzed and no |  | 
4 | Cc1cc(=O)oc2cc(O[C@@H]3O[C@H](CO)[C@H](O)[C@H](F)[C@H]3O)ccc12 [Compound 31] |  | yes |  | 
5 | Cc1cc(=O)oc2cc(O[C@@H]3O[C@H](CO)C[C@H](O)[C@H]3O)ccc12 [Compound 33] |  | yes |  | 
6 | Cc1cc(=O)oc2cc(O[C@@H]3O[C@H](CO)[C@H](O)C[C@H]3O)ccc12 [Compound 35] |  | yes |  | 
7 | COc1ccc(C2O[C@H]3[C@H](O)[C@H](Oc4ccc5c(C)cc(=O)oc5c4)O[C@@H](C)[C@H]3O2)cc1 (stereo partly drawn) [Compound 43, 7-(((3aR,4S,6S,7S,7aS)-7-hydroxy-2-(4-methoxyphenyl)-4-methyltetrahydro-3aH-[1,3]dioxolo[4,5-c]pyran-6-yl)oxy)-4-methyl-2H-chromen-2-one] |  |  | yes | 
8 | CC(=O)O[C@H]1[C@H](OC(C)=O)[C@H](Oc2ccc3c(C)cc(=O)oc3c2)O[C@@H](C)[C@H]1OC(C)=O [Compound 44] |  |  |  | Average percent of product formed by each compound at 72 hours in T47D FUCA1 knockout cells relative to product formed in T47D control cells [4]: 8%
9 | Cc1cc(=O)oc2cc(NC(=O)OCc3ccc(O[C@@H]4O[C@@H](C)[C@@H](O)[C@@H](O)[C@@H]4O)cc3)ccc12 [Compound 50, [4-[(2S,3S,4R,5S,6S)-3,4,5-trihydroxy-6-methyl-tetrahydropyran-2-yl]oxyphenyl]methyl N-(4-methyl-2-oxo-chromen-7-yl)carbamate] |  |  | yes | Average reaction velocity relative to MU-Fuc (%) [3]: 16.7%
10 | Cc1cc(=O)oc2cc(NC(=O)OCc3ccc(NC(=O)O[C@@H]4O[C@@H](C)[C@@H](O)[C@@H](O)[C@@H]4O)cc3)ccc12 [Compound 59, [4-[[(2S,3S,4R,5S,6S)-3,4,5-trihydroxy-6-methyl-tetrahydropyran-2-yl]oxycarbonylamino]phenyl]methyl N-(4-methyl-2-oxo-chromen-7-yl)carbamate] |  |  | yes | 
11 | Cc1cc(=O)oc2cc(O[C@@H]3O[C@H](CO)[C@H](O)[C@H](O)[C@H]3O)ccc12 [MU-Gal, 4-methylumbelliferyl-beta-D-galactopyranoside, reference compound] | 100% | yes |  | 
12 | (2R,3S,4S,5R,6S)-2-(acetoxymethyl)-5-fluoro-6-((4-methyl-2-oxo-2H-chromen-7-yl)oxy)tetrahydro-2H-pyran-3,4-diyl diol [Compound 20] | 0% | not hydrolyzed and no |  | Average percent of product relative to 26 at 72 hours in T47D control cells [2]: 0%
13 | (2S,3R,4R,5S,6S)-5-fluoro-2-methyl-6((4-methyl-2-oxo-2H-chromen-7-yl)oxy)tetrahydro-2H-pyran-3,4-diyl diacetate [Compound 27] |  | yes |  | Average percent of product relative to 26 at 72 hours in T47D control cells [2]: 13%

— patent US20230138729A1, “Coumarin Derivatives of Sugar Analogs and Uses Thereof” (Rubedo Life Sciences, Inc., priority 2021, published 2023)
